This data set can be described thus: aqueous solubility. Type of data set: physicochemical. Particulars: aqueous medium, aqueous buffer; at all relevant physiological pH.

Converted amounts (≈) assume the structure as drawn.

As usually defined, the solubility is the concentration that dissolves in the medium under given conditions. Low readings indicate a poorly soluble substance, high ones a readily soluble substance. As to `Fc1ccc2nc(CCC#Cc3ccccn3)cn2c1` [free base, 6-Fluoro-2-[4-(pyridin-2-yl)but-3-yn-1-yl]imidazo[1,2-a]pyridine], the solubility stood at 0.5 mg/mL (≈ 1880 µM).

On to `Fc1ccc2nc(CCC#Cc3ccccn3)cn2c1.O=P(O)(O)O` [mono-phosphate salt, 6-fluoro-2-[4-(pyridin-2-yl)but-3-yn-1-yl]imidazo[1,2-a]pyridine mono-phosphate salt], for which the solubility lay in the range of 21 to 32.5 mg/mL.

The values above are taken from patent US9938270B2, “Mono-phosphate salt of 6-fluoro-2-[4-(pyridin-2-yl)but-3-yn-1-yl]imidazo[1,2A]pyridine (dipraglurant) and polymorphs thereof as negative allosteric modulator of MGLU5 receptor” (Addex Pharma S.A., priority 2013, dated 2018).
